Assay results published in patent publication US20110038948A1, “Methods of Reducing the Production of Reactive Oxygen Species and Methods of Screening or Identifying Compounds and Compositions that Reduce the Production of Reactive Oxygen Species” (UNIVERSITY OF TENNESSEE RESEARCH FOUNDATION, priority 2005, published 2011).

Columns and labels:
Format in all cases: cell-based, mouse
IL-15 = IL-15 expression in 3T3-L1 adipocytes; details: 1 μmol/L α±tocopherol added to 100 nmol/L H2O2, 48 h; P=0.043
Experimental: (§1) 3T3-L1 pre-adipocytes were incubated at a density of 8000 cells/cm^2 (10 cm^2 dish) and grown in Dulbecco's modified Eagle's medium (DMEM) containing 10% FBS and antibiotics (adipocyte medium) at 37° C. in 5% CO2 in air. Confluent pre-adipocytes were induced to differentiate with a standard differentiation medium consisting of DMEM-F10 (1:1, vol/vol) medium supplemented with 1% fetal bovine serum (FBS), 1 μM dexamethasone, isobutylmethylxanthine (IBMX) (0.5 mM) and antibiotics (1% Penicillin-Streptomycin). Pre-adipocytes were maintained in this differentiation medium for 3 days and subsequently cultured in adipocyte medium. Cultures were re-fed every 2-3 days to allow 90% cells to reach fully differentiation before conducting chemical treatment. […] Cell viability was measured via trypan blue exclusion. Adipocyte and muscle 18s, TNFα, IL-6, IL-8, IL-15 and adiponectin were quantitatively measured using a smart cycler real-time PCR system (Cepheid, Sunnyvale, Calif.) with a TaqMan 1000 Core Reagent Kit (Applied Biosystems, Branchburg, N.J.). […] Reactions of quantitative RT-PCR for standards and unknown samples were also performed according to the instructions of Smart Cycler System (Cepheid, Sunnyvale, Calif.) and TaqMan Real Time PCR Core Kit (Applied Biosystems, Branchburg, N.J.). The mRNA quantitation for each sample was further normalized using the corresponding 18s quantitation.

3T3-L1 adipocytes [1] = experiment: Intracellular Ca2+ in cultured adipocytes (fura-2)
Experimental: 3T3-L1 preadipocytes were incubated at a density of 8000 cells/cm^2 (10 cm^2 dish) and grown in Dulbecco's modified Eagle's medium (DMEM) containing 10% FBS and antibiotics (adipocyte medium) at 37° C. in 5% CO2 in air. Confluent preadipocytes were induced to differentiate with a standard differentiation medium consisting of DMEM-F10 (1:1, vol/vol) medium supplemented with 1% FBS, 1 μM dexamethasone, IBMX (0.5 mM) and antibiotics (1% Penicillin-Streptomycin). Preadipocytes were maintained in this differentiation medium for 3 days and subsequently cultured in adipocyte medium. Cultures were re-fed every 2-3 days to allow 90% of cells to reach full differentiation before conducting chemical treatment. Chemicals were freshly diluted in adipocyte medium before treatment. Cells were washed with fresh adipocyte medium, re-fed with medium containing the different treatments, and incubated at 37° C. in 5% CO2 in air before analysis. Cell viability was measured via trypan blue exclusion. [Ca^2+]i in adipocytes was measured using a fura-2 dual-wavelength fluorescence imaging system. Cells were plated in 35-mm dishes […]). […] Cells were loaded with fura-2 acetoxymethyl ester (fura-2 AM) (10 μmol/L) in the same buffer for 2 h at 37° C. in a dark incubator with 5% CO2. To remove extracellular dye, cells were rinsed with HBSS three times and then post-incubated at room temperature for an additional 1 h for complete hydrolysis of cytoplasmic fura-2 AM. The dishes with dye-loaded cells were mounted on the stage of Nikon TMS-F fluorescence inverted microscope with a Cohu model 4915 charge-coupled device (CCD) camera. Fluorescent images were captured alternatively at excitation wavelengths of 340 and 380 nm with an emission wavelength of 520 nm. After establishment of a stable baseline, the responses to 1α, 25-(OH)2-D3 was determined. [Ca^2+]i was calculated using a ratio equation as described previously. Each analysis evaluated responses of 5 representative whole cells. Images were analyzed with […]2 version 4.62 imaging software (Intracellular Imaging, Cincinnati, Ohio). […]

3T3-L1 adipocytes [2] = experiment: Intracellular ROS generation in cultured adipocytes (H2-DCFDA); details: α-tocopherol 1 μmol/L added, all groups
Experimental: 3T3-L1 preadipocytes were incubated at a density of 8000 cells/cm^2 (10 cm^2 dish) and grown in Dulbecco's modified Eagle's medium (DMEM) containing 10% FBS and antibiotics (adipocyte medium) at 37° C. in 5% CO2 in air. Confluent preadipocytes were induced to differentiate with a standard differentiation medium consisting of DMEM-F10 (1:1, vol/vol) medium supplemented with 1% FBS, 1 μM dexamethasone, IBMX (0.5 mM) and antibiotics (1% Penicillin-Streptomycin). Preadipocytes were maintained in this differentiation medium for 3 days and subsequently cultured in adipocyte medium. Cultures were re-fed every 2-3 days to allow 90% of cells to reach full differentiation before conducting chemical treatment. Chemicals were freshly diluted in adipocyte medium before treatment. Cells were washed with fresh adipocyte medium, re-fed with medium containing the different treatments, and incubated at 37° C. in 5% CO2 in air before analysis. Cell viability was measured via trypan blue exclusion. […] Cells were loaded with H2-DCFDA (2 μmol/L) 30 minute before the end of the incubation period (48 h). After washing twice with PBS, cells were scraped and disrupted by sonication on ice (20 s). Fluorescence (emission 543 nm or 527 nm) and DNA content were then measured as described previously. The intensity of fluorescence was expressed as arbitrary units per ng DNA.

adiponectin = experiment: Adiponectin expression in 3T3-L1 adipocytes; details: 48 h
Experimental: as §1

3T3-L1 adipocytes [3] = experiment: Cell proliferation / DNA synthesis in cultured adipocytes (CyQUANT)
Experimental: 3T3-L1 preadipocytes were incubated at a density of 8000 cells/cm^2 (10 cm^2 dish) and grown in Dulbecco's modified Eagle's medium (DMEM) containing 10% FBS and antibiotics (adipocyte medium) at 37° C. in 5% CO2 in air. Confluent preadipocytes were induced to differentiate with a standard differentiation medium consisting of DMEM-F10 (1:1, vol/vol) medium supplemented with 1% FBS, 1 μM dexamethasone, IBMX (0.5 mM) and antibiotics (1% Penicillin-Streptomycin). Preadipocytes were maintained in this differentiation medium for 3 days and subsequently cultured in adipocyte medium. Cultures were re-fed every 2-3 days to allow 90% of cells to reach full differentiation before conducting chemical treatment. Chemicals were freshly diluted in adipocyte medium before treatment. Cells were washed with fresh adipocyte medium, re-fed with medium containing the different treatments, and incubated at 37° C. in 5% CO2 in air before analysis. Cell viability was measured via trypan blue exclusion. Cells were plated in DMEM with different treatment in duplicate in 96-well plates. After 48 h, a CyQUANT Cell Proliferation Kit (Molecular Probes, Eugene, Oreg.) was used following the manufacturer's protocol. a microplate fluorometer (Packard Instrument Company, Inc., Downers Grove, Ill.) was used to measure CyQUANT fluorescence. Cell viability was determined by Trypan blue exclusion examination.

Cc1c(C)c2c(c(C)c1O)CC[C@@](C)(CCC[C@H](C)CCC[C@H](C)CCCC(C)C)O2 [α-tocopherol]
increase in IL-15 as compared to H2O2-treated cells (IL-15): 2.2 fold | effect on H2O2 induced increase in [Ca2+]i (3T3-L1 adipocytes [1]; α-tocopherol 1 μmol/L plus H2O2, 4 hours): reversed | effect on glucose induced increase in [Ca2+]i (3T3-L1 adipocytes [1]; α-tocopherol 1 μmol/L plus glucose 30 mmol/L, 4 hours): partially blocked | effect on ROS production (3T3-L1 adipocytes [2]): inhibited | effect on adiponectin production (adiponectin): increased | effect on DNA synthesis (3T3-L1 adipocytes [3]; α-tocopherol 1 μmol/L added, all groups): inhibited | effect on H2O2 induced DNA synthesis (3T3-L1 adipocytes [3]; α-tocopherol 1 μmol/L or nifedipine 10 μmol/L plus H2O2, 48 hours): completely blocked
